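All cell lines were grown in 96-well plates and treated with compound for 48 hours. GI50 = concentration required for 50% inhibition of growth. TGI: total growth inhibition.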
Tests used:
Test in all cases: DTP human tumour cell line panel, 48 h
786-0 renal = tested on: 786-0 renal
A498 renal = tested on: A498 renal
A549 NSCLC = tested on: A549 NSCLC
ACHN renal = tested on: ACHN renal
CAKI-1 renal = tested on: CAKI-1 renal
CCRF-CEM leukemia = tested on: CCRF-CEM leukemia
COLO 205 colon = tested on: COLO 205 colon
DU-145 prostate = tested on: DU-145 prostate
EKVX NSCLC = tested on: EKVX NSCLC
HCC-2998 colon = tested on: HCC-2998 colon
HCT-116 colon = tested on: HCT-116 colon
HCT-15 colon = tested on: HCT-15 colon
HL-60(TB) leukemia = tested on: HL-60(TB) leukemia
HOP-62 NSCLC = tested on: HOP-62 NSCLC
HOP-92 NSCLC = tested on: HOP-92 NSCLC
HS 578T breast = tested on: HS 578T breast
HT29 colon = tested on: HT29 colon
IGROV1 ovarian = tested on: IGROV1 ovarian
K-562 leukemia = tested on: K-562 leukemia
KM12 colon = tested on: KM12 colon
LOX IMVI melanoma = tested on: LOX IMVI melanoma
M14 melanoma = tested on: M14 melanoma
MALME-3M melanoma = tested on: MALME-3M melanoma
MCF7 breast = tested on: MCF7 breast
MDA-MB-231 breast = tested on: MDA-MB-231 breast
MDA-MB-435 = tested on: MDA-MB-435
MOLT-4 leukemia = tested on: MOLT-4 leukemia
NCI-H226 lung = tested on: NCI-H226 lung
NCI-H23 lung = tested on: NCI-H23 lung
NCI-H460 lung = tested on: NCI-H460 lung
NCI-H522 lung = tested on: NCI-H522 lung
NCI/ADR-RES ovarian = tested on: NCI/ADR-RES ovarian
OVCAR-3 ovarian = tested on: OVCAR-3 ovarian
OVCAR-4 ovarian = tested on: OVCAR-4 ovarian
OVCAR-5 ovarian = tested on: OVCAR-5 ovarian
OVCAR-8 ovarian = tested on: OVCAR-8 ovarian
PC-3 prostate = tested on: PC-3 prostate
RPMI-8226 leukemia = tested on: RPMI-8226 leukemia
RXF 393 renal = tested on: RXF 393 renal
SF-268 CNS = tested on: SF-268 CNS
SF-295 CNS = tested on: SF-295 CNS
SF-539 CNS = tested on: SF-539 CNS
SK-MEL-2 melanoma = tested on: SK-MEL-2 melanoma
SK-MEL-28 melanoma = tested on: SK-MEL-28 melanoma
SK-MEL-5 melanoma = tested on: SK-MEL-5 melanoma
SK-OV-3 ovarian = tested on: SK-OV-3 ovarian
SN12C renal = tested on: SN12C renal
SNB-19 CNS = tested on: SNB-19 CNS
SNB-75 CNS = tested on: SNB-75 CNS
SR leukemia = tested on: SR leukemia
SW-620 colon = tested on: SW-620 colon
T-47D breast = tested on: T-47D breast
TK-10 renal = tested on: TK-10 renal
U251 CNS = tested on: U251 CNS
UACC-257 melanoma = tested on: UACC-257 melanoma
UACC-62 melanoma = tested on: UACC-62 melanoma
UO-31 renal = tested on: UO-31 renal

CC(=O)c1sc2c(c1OC(=O)c1ccc(Cl)cc1)c(=O)n(-c1ccccc1)c(=S)n2-c1ccccc1
TGI (786-0 renal): 15.9 µM | TGI (A498 renal): 3.64 µM | TGI (A549 NSCLC): > 76.1 µM | TGI (ACHN renal): 15.7 µM | TGI (CAKI-1 renal): > 47 µM | TGI (CCRF-CEM leukemia): 7.41 µM | TGI (COLO 205 colon): 13.8 µM | TGI (DU-145 prostate): > 100 µM | TGI (EKVX NSCLC): 77.8 µM | TGI (HCC-2998 colon): > 58.3 µM | TGI (HCT-116 colon): 25.2 µM | TGI (HCT-15 colon): 25.8 µM | TGI (HL-60(TB) leukemia): 30.6 µM | TGI (HOP-62 NSCLC): 24.1 µM | TGI (HOP-92 NSCLC): 15.8 µM | TGI (HS 578T breast): 9.72 µM | TGI (HT29 colon): 8.95 µM | TGI (IGROV1 ovarian): 37.8 µM | TGI (K-562 leukemia): 38.4 µM | TGI (KM12 colon): 44.7 µM | TGI (LOX IMVI melanoma): 6.92 µM | TGI (M14 melanoma): 5.48 µM | TGI (MALME-3M melanoma): 4.51 µM | TGI (MCF7 breast): 71.9 µM | TGI (MDA-MB-231 breast): 19.2 µM | TGI (MDA-MB-435): > 36.8 µM | TGI (MOLT-4 leukemia): 6.68 µM | TGI (NCI-H226 lung): 5.56 µM | TGI (NCI-H23 lung): > 68.6 µM | TGI (NCI-H460 lung): 22.1 µM | TGI (NCI-H522 lung): 18.9 µM | TGI (NCI/ADR-RES ovarian): 23 µM | TGI (OVCAR-3 ovarian): 41.6 µM | TGI (OVCAR-4 ovarian): 65.5 µM | TGI (OVCAR-5 ovarian): 13.2 µM | TGI (OVCAR-8 ovarian): 15.1 µM | TGI (PC-3 prostate): > 100 µM | TGI (RPMI-8226 leukemia): 8.56 µM | TGI (RXF 393 renal): 5.91 µM | TGI (SF-268 CNS): > 100 µM | TGI (SF-295 CNS): 5.88 µM | TGI (SF-539 CNS): 5.06 µM | TGI (SK-MEL-2 melanoma): 3.7 µM | TGI (SK-MEL-28 melanoma): > 31.8 µM | TGI (SK-MEL-5 melanoma): 7.61 µM | TGI (SK-OV-3 ovarian): 7.03 µM | TGI (SN12C renal): 6.43 µM | TGI (SNB-19 CNS): > 42.9 µM | TGI (SNB-75 CNS): 23.3 µM | TGI (SR leukemia): 23.1 µM | TGI (SW-620 colon): 70.7 µM | TGI (T-47D breast): > 69.4 µM | TGI (TK-10 renal): 87.4 µM | TGI (U251 CNS): 15 µM | TGI (UACC-257 melanoma): 38.4 µM | TGI (UACC-62 melanoma): 42.6 µM | TGI (UO-31 renal): 9.24 µM

N#Cc1c(-c2ccccc2)cc(-c2ccccc2)n(CC(=O)NO)c1=O
GI50 (786-0 renal): 5.59 µM | TGI (786-0 renal): 28 µM | GI50 (A498 renal): 2170 nM | TGI (A498 renal): 7.99 µM | GI50 (A549 NSCLC): 4.57 µM | TGI (A549 NSCLC): > 100 µM | GI50 (ACHN renal): 1090 nM | TGI (ACHN renal): > 100 µM | GI50 (CAKI-1 renal): 3.4 µM | TGI (CAKI-1 renal): > 100 µM | GI50 (CCRF-CEM leukemia): 491 nM | TGI (CCRF-CEM leukemia): 3.07 µM | GI50 (COLO 205 colon): 5.62 µM | TGI (COLO 205 colon): 72.3 µM | GI50 (DU-145 prostate): 6.37 µM | TGI (DU-145 prostate): > 100 µM | GI50 (EKVX NSCLC): 3.45 µM | TGI (EKVX NSCLC): 97 µM | GI50 (HCC-2998 colon): 3.74 µM | TGI (HCC-2998 colon): 20.9 µM | GI50 (HCT-116 colon): 2570 nM | TGI (HCT-116 colon): > 100 µM | GI50 (HCT-15 colon): 3.55 µM | TGI (HCT-15 colon): 28.8 µM | GI50 (HOP-62 NSCLC): 6.99 µM | TGI (HOP-62 NSCLC): 58.3 µM | GI50 (HOP-92 NSCLC): 2150 nM | TGI (HOP-92 NSCLC): 8.17 µM | GI50 (HS 578T breast): 2000 nM | TGI (HS 578T breast): 7.15 µM | GI50 (HT29 colon): 3.07 µM | TGI (HT29 colon): 12.2 µM | GI50 (K-562 leukemia): 1800 nM | TGI (K-562 leukemia): 4.67 µM | GI50 (LOX IMVI melanoma): 176 nM | TGI (LOX IMVI melanoma): 0.333 µM | GI50 (M14 melanoma): 4.16 µM | TGI (M14 melanoma): 19.1 µM | GI50 (MALME-3M melanoma): 3000 nM | TGI (MALME-3M melanoma): 27.3 µM | GI50 (MCF7 breast): 1450 nM | TGI (MCF7 breast): 3.82 µM | GI50 (MDA-MB-231 breast): 4.75 µM | TGI (MDA-MB-231 breast): 68 µM | GI50 (MDA-MB-435): 3.03 µM | TGI (MDA-MB-435): > 100 µM | GI50 (MOLT-4 leukemia): 1700 nM | TGI (MOLT-4 leukemia): 4.92 µM | GI50 (NCI-H226 lung): 13.7 µM | TGI (NCI-H226 lung): 57.5 µM | GI50 (NCI-H23 lung): 3.58 µM | TGI (NCI-H23 lung): 81.4 µM | GI50 (NCI-H460 lung): 3.02 µM | TGI (NCI-H460 lung): > 100 µM | GI50 (NCI-H522 lung): 427 nM | TGI (NCI-H522 lung): 1.82 µM | GI50 (NCI/ADR-RES ovarian): 3.41 µM | TGI (NCI/ADR-RES ovarian): > 100 µM | GI50 (OVCAR-4 ovarian): 3.53 µM | TGI (OVCAR-4 ovarian): > 100 µM | GI50 (OVCAR-5 ovarian): 11.1 µM | TGI (OVCAR-5 ovarian): > 100 µM | GI50 (OVCAR-8 ovarian): 8.02 µM | TGI (OVCAR-8 ovarian): > 100 µM | GI50 (PC-3 prostate): 2250 nM | TGI (PC-3 prostate): 14 µM | GI50 (RPMI-8226 leukemia): 1350 nM | TGI (RPMI-8226 leukemia): 4.77 µM | GI50 (RXF 393 renal): 1610 nM | TGI (RXF 393 renal): 5.92 µM | GI50 (SF-268 CNS): 3.66 µM | TGI (SF-268 CNS): 94.3 µM | GI50 (SF-295 CNS): 7.47 µM | TGI (SF-295 CNS): 33.8 µM | GI50 (SF-539 CNS): 3.83 µM | TGI (SF-539 CNS): 25.7 µM | GI50 (SK-MEL-2 melanoma): 2850 nM | TGI (SK-MEL-2 melanoma): 9.13 µM | GI50 (SK-MEL-28 melanoma): 6.7 µM | TGI (SK-MEL-28 melanoma): 77.4 µM | GI50 (SK-MEL-5 melanoma): 1930 nM | TGI (SK-MEL-5 melanoma): 4.71 µM | GI50 (SK-OV-3 ovarian): 6.24 µM | TGI (SK-OV-3 ovarian): 53.5 µM | GI50 (SN12C renal): 4.27 µM | TGI (SN12C renal): > 100 µM | GI50 (SNB-19 CNS): 7.09 µM | TGI (SNB-19 CNS): 73.3 µM | GI50 (SNB-75 CNS): 1610 nM | TGI (SNB-75 CNS): 6.36 µM | GI50 (SR leukemia): 593 nM | TGI (SR leukemia): 4.48 µM | GI50 (SW-620 colon): 8.87 µM | TGI (SW-620 colon): > 100 µM | GI50 (T-47D breast): 1410 nM | TGI (T-47D breast): 6.88 µM | GI50 (TK-10 renal): 5.92 µM | TGI (TK-10 renal): > 100 µM | GI50 (U251 CNS): 4.91 µM | TGI (U251 CNS): 86.3 µM | GI50 (UACC-257 melanoma): 10.8 µM | TGI (UACC-257 melanoma): 37.4 µM | GI50 (UACC-62 melanoma): 2250 nM | TGI (UACC-62 melanoma): 6.01 µM | GI50 (UO-31 renal): 1840 nM | TGI (UO-31 renal): 9.75 µM

Source: PubChem BioAssay (NCI)
